{
  "source": "ChEMBL document CHEMBL4334495",
  "about": "“Design and Biological Evaluation of m-Xylene Thioether-Stapled Short Helical Peptides Targeting the HIV-1 gp41 Hexameric Coiled-Coil Fusion Complex” (J Med Chem, 2019)",
  "key": {"[1]": {"tested_on": "Human immunodeficiency virus 1", "test": "(§1) Antiviral activity against T20 resistant HIV1 NL4-3 harboring with V38E/N42S mutant infected in human MT2 cells or CEMx174 5.25 M7 cells assessed as reduction in p24 Gag protein production at 3500:1 compound to HP23 ratio measured at 4 days post-infection by ELISA", "format": "functional, organism-based"}, "[2]": {"tested_on": "Human immunodeficiency virus 1", "test": "Synergistic antiviral activity against R5 tropic HIV-1 subtype-B Bal infected in human MT2 cells or CEMx174 5.25 M7 cells assessed as reduction in p24 Gag protein production by measuring combination index at 3:1 ratio of hCS6ERE to compound measured at 4 days post-infection by ELISA", "format": "functional, HIV-1 group M"}, "[3]": {"molecular_target": "Envelope glycoprotein gp160 (Human immunodeficiency virus 1) (UniProt Q6QLK5)", "sequence (Q6QLK5 1-814)": "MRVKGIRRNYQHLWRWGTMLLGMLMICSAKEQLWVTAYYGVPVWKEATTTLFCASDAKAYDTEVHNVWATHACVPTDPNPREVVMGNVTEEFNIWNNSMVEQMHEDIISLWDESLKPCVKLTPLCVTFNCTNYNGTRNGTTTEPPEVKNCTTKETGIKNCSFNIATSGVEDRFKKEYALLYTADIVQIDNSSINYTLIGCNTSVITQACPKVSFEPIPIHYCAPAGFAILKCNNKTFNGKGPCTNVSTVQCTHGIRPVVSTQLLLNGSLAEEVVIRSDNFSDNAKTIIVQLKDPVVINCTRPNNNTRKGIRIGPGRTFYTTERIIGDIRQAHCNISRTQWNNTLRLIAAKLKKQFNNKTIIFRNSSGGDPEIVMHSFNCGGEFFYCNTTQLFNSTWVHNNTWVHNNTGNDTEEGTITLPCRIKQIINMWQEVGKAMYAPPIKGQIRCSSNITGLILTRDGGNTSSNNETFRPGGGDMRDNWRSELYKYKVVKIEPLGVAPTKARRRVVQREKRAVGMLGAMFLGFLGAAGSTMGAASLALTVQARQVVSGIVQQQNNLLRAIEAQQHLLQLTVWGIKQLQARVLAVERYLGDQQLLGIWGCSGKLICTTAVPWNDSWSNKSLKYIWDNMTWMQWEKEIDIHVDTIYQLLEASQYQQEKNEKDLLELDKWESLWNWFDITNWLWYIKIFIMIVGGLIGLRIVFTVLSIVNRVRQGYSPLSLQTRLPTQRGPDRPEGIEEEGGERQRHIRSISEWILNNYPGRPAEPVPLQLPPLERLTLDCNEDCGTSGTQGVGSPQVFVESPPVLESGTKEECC", "test": "Binding affinity to HIV1 GP41 using GP41 NHR derived N36 peptide assessed as molecular weight at 150 uM incubated for 30 mins by sedimentation Velocity analysis"}, "[4]": {"molecular_target": "Envelope glycoprotein gp160 (Human immunodeficiency virus 1) (UniProt Q6QLK5)", "test": "(§2) Ratio of EC50 for inhibition of HIV1 gp41-induced cell-cell fusion between viral envelope expressing human HL2/3 cells to CD4/CCR5 receptor expressing TZM-bl cells in absence of HP23 to EC50 for inhibition of HIV1 gp41-induced cell-cell fusion between viral envelope expressing human HL2/3 cells to CD4/CCR5 receptor expressing TZM-bl cells at 1:1 compound to HP23 ratio"}, "[5]": {"molecular_target": "Envelope glycoprotein gp160 (Human immunodeficiency virus 1) (UniProt Q6QLK5)", "test": "Binding affinity to HIV1 GP41 using GP41 NHR derived N36 peptide assessed as formation of oligomeric complex at 100 uM incubated for 30 mins by Coomassie blue R250 staining based Native-PAGE analysis"}, "[6]": {"tested_on": "Human immunodeficiency virus 1", "test": "Ratio of EC50 for antiviral activity against HIV1 NL4-3 infected in human MT2 cells or CEMx174 5.25 M7 cells in absence of HP23 to EC50 for antiviral activity against HIV1 NL4-3 infected in human MT2 cells or CEMx174 5.25 M7 cells at 10:1 compound to HP23 ratio", "format": "functional"}, "[7]": {"molecular_target": "Envelope glycoprotein gp160 (Human immunodeficiency virus 1) (UniProt Q6QLK5)", "test": "Synergistic inhibition of HIV1 gp41-induced cell-cell fusion between viral envelope expressing human HL2/3 cells to CD4/CCR5 receptor expressing TZM-bl cells assessed as combination index at 2:1 compound to HP23 ratio incubated for 6 hrs by luciferase reporter gene assay"}, "[8]": {"molecular_target": "Envelope glycoprotein gp160 (Human immunodeficiency virus 1) (UniProt Q6QLK5)", "test": "as §2, with “2:1” for “1:1”"}, "[9]": {"tested_on": "Human immunodeficiency virus 1", "test": "Antiviral activity against X4 tropic HIV-1 subtype-B 3B infected in human MT2 cells or CEMx174 5.25 M7 cells assessed as reduction in p24 Gag protein production at 6:1 compound to HP23 ratio measured at 4 days post-infection by ELISA", "format": "functional, cell-based, HIV-1 group M", "conditions": "Human immunodeficiency virus 1, 3B, 96 h"}, "[10]": {"tested_on": "Human immunodeficiency virus 1", "test": "(§3) Ratio of EC50 for antiviral activity against X4 tropic HIV-1 subtype-B 3B infected in human MT2 cells or CEMx174 5.25 M7 cells in absence of HP23 to EC50 for antiviral activity against X4 tropic HIV-1 subtype-B 3B infected in human MT2 cells or CEMx174 5.25 M7 cells at 24:1 compound to HP23 ratio", "format": "functional, HIV-1 group M"}, "[11]": {"tested_on": "Human immunodeficiency virus 1", "test": "as §1, with “Synergistic antiviral” for “Antiviral”, “production by measuring combination index” for “production”, “7000:1” for “3500:1”", "format": "functional"}, "[12]": {"tested_on": "Human immunodeficiency virus 1", "test": "(§4) Ratio of EC50 for antiviral activity against T20 resistant HIV1 NL4-3 harboring with V38E/N42T mutant infected in human MT2 cells or CEMx174 5.25 M7 cells in absence of HP23 to EC50 for Antiviral activity against T20 resistant HIV1 NL4-3 harboring with V38E/N42T mutant infected in human MT2 cells or CEMx174 5.25 M7 cells at 600:1 compound to HP23 ratio", "format": "functional"}, "[13]": {"molecular_target": "Envelope glycoprotein gp160 (Human immunodeficiency virus 1) (UniProt Q6QLK5)", "test": "Synergistic inhibition of HIV1 gp41-induced cell-cell fusion between viral envelope expressing human HL2/3 cells to CD4/CCR5 receptor expressing TZM-bl cells assessed as combination index at 1:1 compound to HP23 ratio incubated for 6 hrs by luciferase reporter gene assay"}, "[14]": {"tested_on": "Human immunodeficiency virus 1", "test": "as §4, with “T2635” for “T20”, “LAI” for “NL4-3”, “Q66R” for “with V38E/N42T”, “antiviral” for “EC50 for Antiviral”, “50:1 ratio of” for “600:1”, “HP23” for “HP23 ratio”", "format": "functional, M:B_Lai"}, "[15]": {"test": "Metabolic stability in rat plasma assessed as parent compound remaining at 3 to 100 uM after 4 hrs by RP-HPLC analysis", "format": "ADME, cell-free", "conditions": "read-out: Stability"}, "[16]": {"tested_on": "Human immunodeficiency virus 1", "test": "Antiviral activity against X4 tropic HIV-1 subtype-B 3B infected in human MT2 cells or CEMx174 5.25 M7 cells assessed as reduction in p24 Gag protein production at 6:1 ratio of hCS6ERE to compound measured at 4 days post-infection by ELISA", "format": "functional, cell-based, HIV-1 group M", "conditions": "Human immunodeficiency virus 1, 3B, 96 h"}, "[17]": {"tested_on": "Human immunodeficiency virus 1", "test": "as §4, with “hCS6ERE” for “HP23”, “300:1 hCS6ERE to” for “600:1”, “compound” for “compound to HP23”", "format": "functional"}, "[18]": {"tested_on": "Human immunodeficiency virus 1", "test": "as §3, with “hCS6ERE” for “HP23”, “24:1 ratio of hCS6ERE to” for “24:1”, “compound” for “compound to HP23 ratio”", "format": "functional, HIV-1 group M"}, "[19]": {"tested_on": "Human immunodeficiency virus 1", "test": "Antiviral activity against HIV1 NL4-3 infected in human MT2 cells or CEMx174 5.25 M7 cells assessed as reduction in p24 Gag protein production at 10:1 hCS6ERE to compound ratio measured at 4 days post-infection by ELISA", "format": "functional, organism-based", "conditions": "Human immunodeficiency virus 1, NL4-3, 96 h"}, "[20]": {"tested_on": "Human immunodeficiency virus 1", "test": "as §4, with “V38E/N42S” for “V38E/N42T”, “hCS6ERE” for “HP23”, “antiviral” for “Antiviral”, “14000:1 hCS6ERE to” for “600:1”, “compound” for “compound to HP23”", "format": "functional"}, "[21]": {"tested_on": "Human immunodeficiency virus 1", "test": "Antiviral activity against T20 resistant HIV1 NL4-3 harboring with V38E/N42S mutant infected in human MT2 cells or CEMx174 5.25 M7 cells assessed as reduction in p24 Gag protein production at 14000:1 hCS6ERE to compound ratio measured at 4 days post-infection by ELISA", "format": "functional, organism-based"}, "[22]": {"molecular_target": "Envelope glycoprotein gp160 (Human immunodeficiency virus 1) (UniProt Q6QLK5)", "test": "as §2, with “2:1 ratio of hCS6ERE to” for “1:1”, “compound” for “compound to HP23 ratio”"}, "[23]": {"tested_on": "Human immunodeficiency virus 1", "test": "Antiviral activity against T2635 resistant HIV1 LAI harboring Q66R mutant infected in human MT2 cells or CEMx174 5.25 M7 cells assessed as reduction in p24 Gag protein production at 12.5:1 ratio of hCS6ERE to compound measured at 4 days post infection by ELISA", "format": "functional, organism-based, M:B_Lai"}},
  "note": "Calls of active or inactive are those of the source. No cut-off for these calls is given here. Starred links: 1 amine or outer side, 2 acyl side, 3 side chain; linkers in the order of their positions; H or OH if unused. Positions of bridges follow the written chain, without caps; N, C: chain ends. Non-standard residues stand in square brackets, D forms with d. Residues, ends and D or L forms follow the SMILES beside them. ξ: configuration not given here. mXylylene = c1cc(C[*:1])cc(C[*:2])c1; ξhCys = NC(CCS)C(=O)O",
  "data": [
    {"molecule": "CC[C@H](C)[C@H](NC(C)=O)C(=O)N[C@@H](CCC(=O)O)C(=O)N[C@@H](CCC(=O)O)C(=O)N[C@@H](CC(C)C)C(=O)N[C@H](C(=O)NC1CCSCc2cccc(c2)CSCCC(C(=O)N[C@@H](CCC(N)=O)C(=O)N[C@@H](CCC(N)=O)C(=O)N[C@@H](CCCNC(=N)N)C(=O)N[C@@H](CCCCN)C(=O)N[C@@H](CC(N)=O)C(=O)N[C@@H](CCC(=O)O)C(=O)N[C@@H](CCC(=O)O)C(=O)N[C@@H](C)C(=O)N[C@@H](CC(C)C)C(=O)N[C@@H](CCCNC(=N)N)C(=O)N[C@@H](CCC(=O)O)C(=O)N[C@@H](CC(C)C)C(N)=O)NC(=O)[C@H](CCC(N)=O)NC(=O)[C@H](C)NC(=O)[C@H](C)NC1=O)[C@@H](C)CC", "note": "(stereo partly drawn) (Ac-IEELI[ξhCys]AAQ[ξhCys]QQRKNEEALREL-NH2; linker 6-10 via mXylylene)", "values": [
      {"measurement": "EC50", "setting": "[1]", "result": 2040, "unit": "nM"},
      {"measurement": "CI", "setting": "[2]", "result": 0.8},
      {"measurement": "Activity", "setting": "[3]", "result": 19.2, "unit": "kDa"},
      {"measurement": "Ratio EC50", "setting": "[4]", "result": 2},
      {"measurement": "Activity", "setting": "[5]", "result": "Active"},
      {"measurement": "Ratio EC50", "setting": "[6]", "result": 2.5},
      {"measurement": "CI", "setting": "[7]", "result": 0.8},
      {"measurement": "Ratio EC50", "setting": "[8]", "result": 2},
      {"measurement": "EC50", "setting": "[9]", "result": 7.6, "unit": "nM"},
      {"measurement": "Ratio EC50", "setting": "[10]", "result": 1.6},
      {"measurement": "CI", "setting": "[11]", "result": 0.6},
      {"measurement": "Ratio EC50", "setting": "[12]", "result": 2.2},
      {"measurement": "CI", "setting": "[13]", "result": 0.9},
      {"measurement": "Ratio EC50", "setting": "[14]", "result": 3.3},
      {"measurement": "remaining at 4 h, up to 100 µM", "setting": "[15]", "result": 100, "unit": "%"}
    ]},
    {"molecule": "H-EMTWEEWEKKIEEYTKKIEEILK-OH", "values": [
      {"measurement": "EC50", "setting": "[16]", "result": 1.3, "unit": "nM"},
      {"measurement": "Ratio EC50", "setting": "[17]", "result": 2.9},
      {"measurement": "Ratio EC50", "setting": "[18]", "result": 3.6},
      {"measurement": "EC50", "setting": "[19]", "result": 0.9, "unit": "nM"},
      {"measurement": "Ratio EC50", "setting": "[20]", "result": 7},
      {"measurement": "EC50", "setting": "[21]", "result": 0.2, "unit": "nM"},
      {"measurement": "Ratio EC50", "setting": "[22]", "result": 2},
      {"measurement": "EC50", "setting": "[23]", "result": 1.8, "unit": "nM"}
    ]}
  ]
}
